These are literature values, as cited in patent US12662501B2, “Transcriptome In Vivo Analysis (TIVA) and Transcriptome In Situ Analysis (TISA)” (The Trustees of the University of Pennsylvania, priority 2014, dated 2026).

For series [1] the following is noted: for Eop: 1MLCT Ru→bpy(π1*) transition; for λmax: 1MLCT band.

For the molecule `CSc1ccccc1.CSc1ccccc1.[Ru+2].c1ccc(-c2ccccn2)nc1.c1ccc(-c2ccccn2)nc1` [(MeSPh)2], in series [1], the Eop is 24752 cm⁻¹ and the λmax is on record as 404 nm.

As to `CCSC.CCSC.[Ru+2].c1ccc(-c2ccccn2)nc1.c1ccc(-c2ccccn2)nc1` [(MeSEt)2], in series [1], the Eop is 23697 cm⁻¹ and the λmax was 422 nm.

Consider `C=CCn1cnnc1` [4-ally1-1,2,4-triazole], for which, in series [1], the Eop was 21190 cm⁻¹ and the λmax is recorded as 472 nm.

For the molecule `Cn1ccnc1.Cn1ccnc1.[Ru+2].c1ccc(-c2ccccn2)nc1.c1ccc(-c2ccccn2)nc1` [(N-MeIm)2], in series [1], the Eop is 20700 cm⁻¹ and the λmax was 483 nm.

`[Ru+2].c1ccc(-c2ccccn2)nc1.c1ccc(-c2ccccn2)nc1.c1ccc(P(c2ccccc2)c2ccccc2)cc1.c1ccc(P(c2ccccc2)c2ccccc2)cc1` [(PPh3)2]: in series [1], the Eop is 23870 cm⁻¹ and the λmax was 419 nm.

Take `[Ru+2].c1ccc(-c2ccccn2)nc1.c1ccc(-c2ccccn2)nc1.c1ccncc1.c1ccncc1` [(Pyr)2]: in series [1], the Eop is 21980 cm⁻¹ and the λmax was 455 nm.

With `N.N.[Ru+2].c1ccc(-c2ccccn2)nc1.c1ccc(-c2ccccn2)nc1` [(NH3)2], in series [1], the Eop was 20410 cm⁻¹ and the λmax is listed as 490 nm.

On to `F[P-](F)(F)(F)(F)F.NCCCC(=O)[O-].[Ru+2].c1ccc(-c2ccccn2)nc1.c1ccc(-c2ccccn2)nc1.c1ccc(P(c2ccccc2)c2ccccc2)cc1` [RuBi-caged GABA], for which the ε (1P, 424 nm) was 6400 M⁻¹ cm⁻¹. Also, the Φ (RuBi-caged GABA) is given as 0.2. Also, the εΦ (RuBi-caged GABA, 1P, 424 nm) was 1280.

For the molecule `CC(=O)c1ccncc1.CC(=O)c1ccncc1.[Ru+2].c1ccc(-c2ccccn2)nc1.c1ccc(-c2ccccn2)nc1` [(4-AcPyr)2], in series [1], the Eop was 22620 cm⁻¹ and the λmax was 442 nm.
